In PubChem BioAssay (NCI):
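All cell lines were grown in 96-well plates and treated with compound for 48 hours. Here, GI50 denotes the concentration required for 50% inhibition of growth. TGI is the concentration that stops growth completely.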

Columns and labels:
Assay in all cases: NCI-60 cell line screen, 48 h
786-0 renal = tested on: 786-0 renal
A498 renal = tested on: A498 renal
A549 NSCLC = tested on: A549 NSCLC
ACHN renal = tested on: ACHN renal
BT-549 breast = tested on: BT-549 breast
CAKI-1 renal = tested on: CAKI-1 renal
CCRF-CEM leukemia = tested on: CCRF-CEM leukemia
COLO 205 colon = tested on: COLO 205 colon
DU-145 prostate = tested on: DU-145 prostate
EKVX NSCLC = tested on: EKVX NSCLC
HCC-2998 colon = tested on: HCC-2998 colon
HCT-116 colon = tested on: HCT-116 colon
HCT-15 colon = tested on: HCT-15 colon
HL-60(TB) leukemia = tested on: HL-60(TB) leukemia
HOP-62 NSCLC = tested on: HOP-62 NSCLC
HOP-92 NSCLC = tested on: HOP-92 NSCLC
HS 578T breast = tested on: HS 578T breast
HT29 colon = tested on: HT29 colon
IGROV1 ovarian = tested on: IGROV1 ovarian
K-562 leukemia = tested on: K-562 leukemia
KM12 colon = tested on: KM12 colon
LOX IMVI melanoma = tested on: LOX IMVI melanoma
M14 melanoma = tested on: M14 melanoma
MALME-3M melanoma = tested on: MALME-3M melanoma
MCF7 breast = tested on: MCF7 breast
MDA-MB-231 breast = tested on: MDA-MB-231 breast
MDA-MB-435 = tested on: MDA-MB-435
MOLT-4 leukemia = tested on: MOLT-4 leukemia
NCI-H226 lung = tested on: NCI-H226 lung
NCI-H23 lung = tested on: NCI-H23 lung
NCI-H460 lung = tested on: NCI-H460 lung
NCI-H522 lung = tested on: NCI-H522 lung
NCI/ADR-RES ovarian = tested on: NCI/ADR-RES ovarian
OVCAR-3 ovarian = tested on: OVCAR-3 ovarian
OVCAR-4 ovarian = tested on: OVCAR-4 ovarian
OVCAR-8 ovarian = tested on: OVCAR-8 ovarian
PC-3 prostate = tested on: PC-3 prostate
RPMI-8226 leukemia = tested on: RPMI-8226 leukemia
RXF 393 renal = tested on: RXF 393 renal
SF-268 CNS = tested on: SF-268 CNS
SF-295 CNS = tested on: SF-295 CNS
SF-539 CNS = tested on: SF-539 CNS
SK-MEL-2 melanoma = tested on: SK-MEL-2 melanoma
SK-MEL-28 melanoma = tested on: SK-MEL-28 melanoma
SK-MEL-5 melanoma = tested on: SK-MEL-5 melanoma
SK-OV-3 ovarian = tested on: SK-OV-3 ovarian
SN12C renal = tested on: SN12C renal
SNB-19 CNS = tested on: SNB-19 CNS
SNB-75 CNS = tested on: SNB-75 CNS
SR leukemia = tested on: SR leukemia
SW-620 colon = tested on: SW-620 colon
T-47D breast = tested on: T-47D breast
TK-10 renal = tested on: TK-10 renal
U251 CNS = tested on: U251 CNS
UACC-257 melanoma = tested on: UACC-257 melanoma
UACC-62 melanoma = tested on: UACC-62 melanoma
UO-31 renal = tested on: UO-31 renal

O=C1C=CC2(NN=C(c3ccccc3)N2c2ccccc2)c2cccc(O)c21 (centres undefined)
GI50 (786-0 renal): 6.13 µM
TGI (786-0 renal): 43 µM
GI50 (A498 renal): 5.52 µM
TGI (A498 renal): 19.6 µM
GI50 (A549 NSCLC): 1.84 µM
TGI (A549 NSCLC): 5 µM
GI50 (ACHN renal): 3.11 µM
TGI (ACHN renal): 21.5 µM
GI50 (BT-549 breast): 1.13 µM
TGI (BT-549 breast): 2.69 µM
GI50 (CAKI-1 renal): 5.71 µM
TGI (CAKI-1 renal): 50.3 µM
GI50 (CCRF-CEM leukemia): 4.83 µM
TGI (CCRF-CEM leukemia): > 100 µM
GI50 (COLO 205 colon): 1.89 µM
TGI (COLO 205 colon): 3.83 µM
GI50 (DU-145 prostate): 1.27 µM
TGI (DU-145 prostate): 2.56 µM
GI50 (EKVX NSCLC): 1.41 µM
TGI (EKVX NSCLC): 14.5 µM
GI50 (HCC-2998 colon): 3.83 µM
TGI (HCC-2998 colon): 13 µM
GI50 (HCT-116 colon): 1.38 µM
TGI (HCT-116 colon): 5.26 µM
GI50 (HCT-15 colon): 0.472 µM
TGI (HCT-15 colon): 2.37 µM
GI50 (HL-60(TB) leukemia): 2.77 µM
TGI (HL-60(TB) leukemia): 8.03 µM
GI50 (HOP-62 NSCLC): 0.693 µM
TGI (HOP-62 NSCLC): 2.22 µM
GI50 (HOP-92 NSCLC): 22.8 µM
TGI (HOP-92 NSCLC): 54.2 µM
GI50 (HS 578T breast): 2.86 µM
TGI (HS 578T breast): 7.63 µM
GI50 (HT29 colon): 2.53 µM
TGI (HT29 colon): 6.21 µM
GI50 (IGROV1 ovarian): 3.19 µM
TGI (IGROV1 ovarian): 17.1 µM
GI50 (K-562 leukemia): 1.6 µM
TGI (K-562 leukemia): 21 µM
GI50 (KM12 colon): 2.65 µM
TGI (KM12 colon): 18 µM
GI50 (LOX IMVI melanoma): 0.275 µM
TGI (LOX IMVI melanoma): 1.28 µM
GI50 (M14 melanoma): 1.3 µM
TGI (M14 melanoma): 2.6 µM
GI50 (MALME-3M melanoma): 1.28 µM
TGI (MALME-3M melanoma): 2.58 µM
GI50 (MCF7 breast): 1.5 µM
TGI (MCF7 breast): 3.83 µM
GI50 (MDA-MB-231 breast): 2.37 µM
TGI (MDA-MB-231 breast): 33.9 µM
GI50 (MDA-MB-435): 0.185 µM
TGI (MDA-MB-435): 0.336 µM
GI50 (MOLT-4 leukemia): 6.81 µM
TGI (MOLT-4 leukemia): > 100 µM
GI50 (NCI-H226 lung): 1.83 µM
TGI (NCI-H226 lung): 4.53 µM
GI50 (NCI-H23 lung): 0.46 µM
TGI (NCI-H23 lung): 2.18 µM
GI50 (NCI-H460 lung): 2.56 µM
TGI (NCI-H460 lung): 10.2 µM
GI50 (NCI-H522 lung): 1.21 µM
TGI (NCI-H522 lung): 3.4 µM
GI50 (NCI/ADR-RES ovarian): 1.62 µM
TGI (NCI/ADR-RES ovarian): 30.9 µM
GI50 (OVCAR-3 ovarian): 1.08 µM
TGI (OVCAR-3 ovarian): 3.7 µM
GI50 (OVCAR-4 ovarian): 0.698 µM
TGI (OVCAR-4 ovarian): 3.21 µM
GI50 (OVCAR-8 ovarian): 2.4 µM
TGI (OVCAR-8 ovarian): > 100 µM
GI50 (PC-3 prostate): 3.19 µM
TGI (PC-3 prostate): > 100 µM
GI50 (RPMI-8226 leukemia): 3.52 µM
TGI (RPMI-8226 leukemia): > 100 µM
GI50 (RXF 393 renal): 7.36 µM
TGI (RXF 393 renal): 25 µM
GI50 (SF-268 CNS): 1.84 µM
TGI (SF-268 CNS): 14.3 µM
GI50 (SF-295 CNS): 1.34 µM
TGI (SF-295 CNS): 3.18 µM
GI50 (SF-539 CNS): 1.26 µM
TGI (SF-539 CNS): 2.79 µM
GI50 (SK-MEL-2 melanoma): 4.6 µM
TGI (SK-MEL-2 melanoma): 21.5 µM
GI50 (SK-MEL-28 melanoma): 1.99 µM
TGI (SK-MEL-28 melanoma): 4.38 µM
GI50 (SK-MEL-5 melanoma): 0.272 µM
TGI (SK-MEL-5 melanoma): 0.706 µM
GI50 (SK-OV-3 ovarian): 11.8 µM
TGI (SK-OV-3 ovarian): 98 µM
GI50 (SN12C renal): 1.47 µM
TGI (SN12C renal): 2.84 µM
GI50 (SNB-19 CNS): 1.59 µM
TGI (SNB-19 CNS): 10.8 µM
GI50 (SNB-75 CNS): 1.82 µM
TGI (SNB-75 CNS): 3.44 µM
GI50 (SR leukemia): 4.38 µM
TGI (SR leukemia): 76.9 µM
GI50 (SW-620 colon): 1.67 µM
TGI (SW-620 colon): 3.64 µM
GI50 (T-47D breast): 4.88 µM
TGI (T-47D breast): 37.7 µM
GI50 (TK-10 renal): 5.46 µM
TGI (TK-10 renal): 46 µM
GI50 (U251 CNS): 0.587 µM
TGI (U251 CNS): 20.2 µM
GI50 (UACC-257 melanoma): 1.47 µM
TGI (UACC-257 melanoma): 2.93 µM
GI50 (UACC-62 melanoma): 1.05 µM
TGI (UACC-62 melanoma): 2.26 µM
GI50 (UO-31 renal): 1.46 µM
TGI (UO-31 renal): 7.67 µM
